Holding throughout (experiment): radiometric […]-ATP kinase assay, ATF2 substrate, ATP at apparent Km
Holding throughout (assay type): biochemical

One experiment addresses T1, JNK1 (Homo sapiens, UniProt P45983).
T1 construct: gene MAPK8; untagged JNK1 (amino acids 1-384)

Another experiment deals with T2, JNK2 (Homo sapiens, UniProt P45984).
T2 construct: gene MAPK9; untagged JNK2 (amino acids 1-424)

The target in a further experiment is T3, JNK3 (Homo sapiens, UniProt P53779).
T3 construct: gene MAPK10; GST-tagged JNK3 (amino acids 1-426)

The structures appear in SMILES notation.

T2 sequence (P45984 whole entry, the tested form may be a part): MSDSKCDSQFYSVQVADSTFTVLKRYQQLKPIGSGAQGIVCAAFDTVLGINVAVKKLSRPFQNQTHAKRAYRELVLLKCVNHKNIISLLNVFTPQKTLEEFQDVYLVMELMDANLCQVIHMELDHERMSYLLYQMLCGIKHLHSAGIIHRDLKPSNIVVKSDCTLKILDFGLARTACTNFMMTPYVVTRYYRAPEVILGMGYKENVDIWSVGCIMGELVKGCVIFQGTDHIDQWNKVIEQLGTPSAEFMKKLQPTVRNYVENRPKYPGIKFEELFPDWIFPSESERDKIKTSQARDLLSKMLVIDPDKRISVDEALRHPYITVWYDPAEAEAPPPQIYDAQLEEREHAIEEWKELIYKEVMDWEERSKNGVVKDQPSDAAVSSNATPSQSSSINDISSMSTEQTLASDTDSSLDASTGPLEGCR
T3 sequence (P53779 1-426): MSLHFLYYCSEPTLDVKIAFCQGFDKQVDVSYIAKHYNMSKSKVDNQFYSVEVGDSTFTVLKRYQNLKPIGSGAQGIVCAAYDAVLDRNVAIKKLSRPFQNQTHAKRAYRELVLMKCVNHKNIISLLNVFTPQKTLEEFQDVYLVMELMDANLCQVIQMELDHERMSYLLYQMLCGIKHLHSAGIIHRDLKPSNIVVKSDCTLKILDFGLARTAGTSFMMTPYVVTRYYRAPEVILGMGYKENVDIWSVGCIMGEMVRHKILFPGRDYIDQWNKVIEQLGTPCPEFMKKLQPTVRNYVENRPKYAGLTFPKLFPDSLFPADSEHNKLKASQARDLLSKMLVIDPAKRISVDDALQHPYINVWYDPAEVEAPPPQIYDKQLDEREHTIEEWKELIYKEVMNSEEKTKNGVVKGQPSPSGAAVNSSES
T1 sequence (P45983 1-384 isoform P45983-2): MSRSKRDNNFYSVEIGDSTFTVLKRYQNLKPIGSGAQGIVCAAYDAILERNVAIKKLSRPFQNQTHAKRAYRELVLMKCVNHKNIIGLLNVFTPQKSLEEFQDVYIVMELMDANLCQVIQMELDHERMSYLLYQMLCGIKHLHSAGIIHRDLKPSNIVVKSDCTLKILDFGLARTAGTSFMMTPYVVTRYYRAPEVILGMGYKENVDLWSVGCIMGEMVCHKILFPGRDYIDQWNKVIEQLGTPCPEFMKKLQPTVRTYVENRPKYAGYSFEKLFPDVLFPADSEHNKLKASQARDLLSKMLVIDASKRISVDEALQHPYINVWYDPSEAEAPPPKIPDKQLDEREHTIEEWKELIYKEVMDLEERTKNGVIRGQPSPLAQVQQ

Turning to `Nc1nc2nc[nH]c2c(=O)[nH]1` [G, guanine], the IC50 at JNK1 came to 200 µM; at JNK2, 180 µM; on JNK3, 330 µM.

For orientation: IC50 means the concentration at which inhibition is half-maximal.

(Values after PMC12340087, “Guanine is an inhibitor of c-jun terminal kinases” (Scientific Reports, 2025).)
